Assay results: patent US7960393B2, “Pyrimidine derivatives useful for the treatment of diseases mediated by CRTH2” (Actimis Pharmaceuticals, Inc., priority 2002, dated 2011)
Where two headings read alike, the source gives them in different places.

Columns and labels:
human CRTH2 [1] = biological target: T1, human CRTH2 (Homo sapiens, UniProt Q9Y5Y4); experiment: Measurement of Ca2+ mobilization in the human CRTH2-transfected L1.2 cell line (Assay 1); assay type: cell-based
T1 construct: expressed in transfected cells; host or cells: L1.2 cells, pEAK expression vector, puromycin-selected
T1 sequence (Q9Y5Y4 1-395): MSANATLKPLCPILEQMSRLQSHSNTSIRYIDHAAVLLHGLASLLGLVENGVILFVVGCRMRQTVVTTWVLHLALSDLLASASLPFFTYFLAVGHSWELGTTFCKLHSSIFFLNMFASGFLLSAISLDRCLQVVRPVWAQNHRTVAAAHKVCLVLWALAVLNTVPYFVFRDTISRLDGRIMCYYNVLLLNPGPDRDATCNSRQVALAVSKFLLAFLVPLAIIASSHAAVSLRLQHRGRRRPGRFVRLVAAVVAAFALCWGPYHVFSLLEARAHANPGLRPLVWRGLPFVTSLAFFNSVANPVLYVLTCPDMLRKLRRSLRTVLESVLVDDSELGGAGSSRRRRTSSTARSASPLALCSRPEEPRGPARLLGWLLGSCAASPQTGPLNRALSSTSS
Summary of the method: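 Human CRTH2 was stably expressed in L1.2 cells (puromycin-selected) loaded with Fluo-3AM (1 μM final) for 60 min at room temperature. Buffer was 20 mM HEPES pH 7.6, 0.1% BSA, 1 mM probenecid in Hanks'. Cells (2×10^5/well) got compound for 5 min at RT, with fluorescence at 480 nm. IC50 bins: A ≤10 nM, B ≤100 nM, C ≤500 nM, D above; samples were solid-phase products of about 40–90% purity.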

human CRTH2 [2] = biological target: T1, human CRTH2; experiment: Human CRTH2 receptor binding assay (Assay 2); details: binding to puromycin-resistant human CRTH2 L1.2 transfectants
Protocol: Human CRTH2 cDNA was amplified from human eosinophil cDNA with gene specific primers containing restriction sites for cloning into pEAK vector (Edge Bio Systems). The human CRTH2 cDNA was cloned into the mammalian expression vector pEAK. This expression plasmid (40 μg) was transfected into L1.2 cells, at a cell density of 1×10^7 cells/500 μl, by using electroporation apparatus (Gene Pulser II, BioRad) at 250V/1,000 μF. One day after the transfection, puromycin (1 μg/ml, Sigma) was added into the cell culture plates. Two weeks after the transfection, grown cells were picked up for further growth.
[Human CRTH2 Receptor Binding Assay] (Assay 2)
CRTH2 transfectants were washed once with PBS and resuspended in binding buffer (50 mM Tris-HCl, pH7.4, 40 mM MgCl2, 0.1% BSA, 0.1% NaN3). 100 μl of cell suspension (2×10^5 cells), [^3H]-labeled PGD2, and various concentrations of test compound were then mixed in a 96-well U-bottom polypropylene plate and incubated for […] at room temperature to allow binding to occur. […] Scintillant was added to the filtration plate, and radioactivity remaining on the filter was measured by TopCount (Packard), a scintillation counter. Non-specific binding was determined by incubating the cell suspension and [^3H]-labeled PGD2 in the presence of 1 μM of unlabeled PGD2.

[3] = PGD2-induced Ca2+ mobilization in CRTH2-transfected L1.2 cells, compounds as yielded by solid phase synthesis, purity about 40 to 90%, read-out: Activity class

SMILES | IC50 (human CRTH2 [1]; [3]) [nM] | melting point [°C] | Kd (human CRTH2 [2]) [nM] | IC50 (human CRTH2 [1]) [nM]
CN(C)c1nc(Cc2ccc(NC(=O)COc3ccccc3)cc2)nc(N2CCOCC2)c1CC(=O)O [Example 7-26] | > 500 | 172 to 175 |  | 
COCc1nc(Cc2ccc(NC(=O)c3ccc4ccccc4c3)cc2)nc(N(C)C)c1CC(=O)O [Example 8-6] | < 10 | 128 to 131 |  | 
CCc1nc(Cc2ccc(NC(=O)c3ccc4ccccc4c3)cc2)nc(N(C)C)c1CC(=O)O [Example 8-8] | < 10 | 148 to 150 |  | 
CC(C)c1nc(Cc2ccc(NC(=O)c3ccc(C(F)(F)F)cc3)cc2)nc(N(C)C)c1CC(=O)O [Example 8-11] | 10 to 100 | 145 to 148 |  | 
CN(C)c1nc(Cc2ccc(NC(=O)OCc3ccc(F)cc3)cc2)ncc1CC(=O)O [Example 9-2, {4-(dimethylamino)-2-[4-({[(4-fluorobenzyl)oxy]carbonyl}amino)benzyl]pyrimidin-5-yl}acetic acid] |  | 95 to 97 |  | < 10
COCc1nc(Cc2ccc(NC(=O)OCc3ccccc3)cc2)nc(N(C)C)c1CC(=O)O [Example 9-5] | > 500 | 88 to 90 |  | 
CCc1nc(Cc2ccc(NC(=O)OCc3ccccc3)cc2)nc(N(C)C)c1CC(=O)O [Example 9-6] | > 500 | 120 to 123 |  | 
CN(C)c1nc(Cc2ccc(NC(=O)OCc3ccccc3)cc2)nc(N(C)C)c1CC(=O)O [Example 9-7] | < 10 | 100 |  | 

Now from value to molecule, other results behind:

IC50 (human CRTH2 [1]; [3]) [nM] | melting point [°C] | Kd (human CRTH2 [2]) [nM] | SMILES | IC50 (human CRTH2 [1]) [nM]
< 10 | 125 to 128 |  | COc1ccccc1/C=C/C(=O)Nc1ccc(Cc2nc(N(C)C)c(CC(=O)O)c(N3CCOCC3)n2)cc1 [Example 7-27] | 
100 to 500 | 132 to 135 |  | CN(C)c1nc(Cc2ccc(NC(=O)c3ccc(F)cc3)cc2)nc(N2CCCC2)c1CC(=O)O [Example 7-28] | 
10 to 100 | 140 to 142 |  | CN(C)c1nc(Cc2ccc(NC(=O)c3ccc(Cl)cc3)cc2)nc(N2CCCC2)c1CC(=O)O [Example 7-29] | 
100 to 500 | 197 to 198 |  | CN(C)c1nc(Cc2ccc(NC(=O)c3ccc(F)cc3)cc2)nc(N2CCOCC2)c1CC(=O)O [Example 7-30] | 
< 10 | 126 to 128 |  | COCc1nc(Cc2ccc(NC(=O)c3ccc(C(F)(F)F)cc3)cc2)nc(N(C)C)c1CC(=O)O [Example 8-7] | 
< 10 | 153 to 155 |  | CCc1nc(Cc2ccc(NC(=O)c3ccc(C(F)(F)F)cc3)cc2)nc(N(C)C)c1CC(=O)O [Example 8-9] | 
10 to 100 | 158 to 160 |  | CC(C)c1nc(Cc2ccc(NC(=O)c3ccc4ccccc4c3)cc2)nc(N(C)C)c1CC(=O)O [Example 8-10] | 
10 to 100 | 101 to 104 |  | CN(C)c1nc(Cc2ccc(NC(=O)OCc3ccccc3)cc2)ncc1CC(=O)O [Example 9-1, [2-(4-{[(Benzyloxy)carbonyl]amino}benzyl)-4-(dimethylamino)pyrimidin-5-yl]acetic acid] | 
< 10 | 88 to 91 |  | CN(C)c1nc(Cc2ccc(NC(=O)OCc3ccccc3)cc2)nc(Cl)c1CC(=O)O [Example 9-3] | 
< 10 | 91 to 93 |  | CN(C)c1nc(Cc2ccc(NC(=O)OCc3ccc(C(F)(F)F)cc3)cc2)ncc1CC(=O)O [Example 9-8] | 
 |  | 6.3 | CCCCC[C@H](O)/C=C/[C@H]1C(=O)C[C@H](O)[C@@H]1C/C=C\CCCC(=O)O [[^3H]-labeled PGD2] | 
